This note sets out measurements from patent US11014917B2, “5-fluoro-c-(aryl or heterocyclyl)-glycoside derivatives useful as dual SGLT1 / SGLT2 modulators” (Janssen Pharmaceutica NV, priority 2017, dated 2021).

For one assay, the target named is T1, human SGLT1 (Homo sapiens, UniProt P13866).
T1 construct: expressed in transfected cells
T1 sequence (P13866 1-664): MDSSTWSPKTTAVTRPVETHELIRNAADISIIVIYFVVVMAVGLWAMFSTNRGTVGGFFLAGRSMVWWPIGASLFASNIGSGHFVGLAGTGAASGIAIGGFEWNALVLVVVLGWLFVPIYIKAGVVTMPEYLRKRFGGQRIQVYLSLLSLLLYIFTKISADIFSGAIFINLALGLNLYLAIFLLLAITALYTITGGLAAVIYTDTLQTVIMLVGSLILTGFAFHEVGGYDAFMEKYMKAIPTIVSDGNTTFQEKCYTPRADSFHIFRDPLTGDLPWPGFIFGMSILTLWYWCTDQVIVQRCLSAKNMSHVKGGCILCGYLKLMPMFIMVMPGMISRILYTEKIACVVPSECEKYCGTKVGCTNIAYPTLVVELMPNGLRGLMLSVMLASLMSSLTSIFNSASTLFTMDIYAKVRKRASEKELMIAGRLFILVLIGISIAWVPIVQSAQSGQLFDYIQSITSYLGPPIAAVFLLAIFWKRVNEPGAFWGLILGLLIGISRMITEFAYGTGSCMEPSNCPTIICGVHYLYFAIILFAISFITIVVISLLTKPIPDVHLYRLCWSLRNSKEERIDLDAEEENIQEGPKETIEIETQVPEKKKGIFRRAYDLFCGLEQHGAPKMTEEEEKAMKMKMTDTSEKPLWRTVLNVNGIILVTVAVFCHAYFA
Put plainly: SGLT1 assay: Na-dependent 14C-AMG uptake in CHO-K1 cells stably expressing human SGLT1. It is filed as cell-based. Conditions: for SGLT1 %-inhibition / inhibition at 0.3 µM: @ 0.3 μM; for IC50: average if tested more than once. On the procedure:
(§1) The ability of the compounds of formula (I) of the present invention to treat an SGLT-mediated condition was determined using the following procedures:
(§2) SGLT1 and SGLT2 were cloned in form of cDNA from human small intestine (Genbank M24847), and from human kidney (Genbank M95549), respectively. Subsequently, each full cDNA was subcloned into pcDNA with each construct's integrity verified through follow-on sequencing. To generate CHO-K1 cells that stably express human SGLT1 or human SGLT2, CHO-K1 cells were transfected using DMRIE-C reagent (Life Technologies, Gaithersburg, Md.). Transfected cells were then selected in the presence of 500 μg/ml of the Geneticin (G418 Cellgro Catalog No. 30234-Cl)
(§3) Individual clones were then characterized using the following cell-based assay for sodium-dependent glucose transport:
(§4) Inhibition of SGLT1 and SGLT2 activity was assessed in CHO K1 cells stably expressing either human SGLT1 or SGLT2, using the SGLT specific glucose analog methyl-glucopyranoside (Sigma Catalog No. M-9376). Cells were plated (45,000 cells/well) in white wall 96-well plates (COSTAR, Cat #3903) for 24 hours in growth medium, then a final concentration of 10 mM Na-Butyrate (ALDRICH Cat #30341-0) was added. The cells were incubated for 24 hours. On the day of the assay, cells were rinsed and treated with test compounds (at concentrations of 0.001 μM to 10 μM) in assay buffer (50 mM HEPES, 20 mM Tris base, 5 mM KCl, 1 mM MgCl2, 1 mM CaCl2 and 137 mM NaCl, pH 7.4) for 10 minutes. Cells were then incubated with ^14C-a-methyl-d-glucopyranoside (AMG, Amersham Catalog No. CFB 76), using 0.07 μCi per well in 500 μM AMG final concentration. The cells were incubated for 2 hours at 37° C. with 5% CO2 and washed two times with ice-cold Phosphate Buffer Solution (Cellgro Catalog No. 21030-CV). The cells were then solubilized by adding 60 μl of MICROSCINT™20 and the Na-dependent ^14C-AMG uptake was quantified by measuring radioactivity. Plates were counted in a TopCount (Packard, Meriden, Conn.)
(§5) Representative compounds of the present invention were tested according to the procedures as described in Biological Example 1 and 2 above, with results as listed in Table 5, below. Results are reported as the %-inhibition or IC50 value. Variability for the functional assay was typically within 20%.

A further assay addresses T2, human SGLT2 (Homo sapiens, UniProt P31639).
T2 construct: expressed in transfected cells
T2 sequence (P31639 1-672): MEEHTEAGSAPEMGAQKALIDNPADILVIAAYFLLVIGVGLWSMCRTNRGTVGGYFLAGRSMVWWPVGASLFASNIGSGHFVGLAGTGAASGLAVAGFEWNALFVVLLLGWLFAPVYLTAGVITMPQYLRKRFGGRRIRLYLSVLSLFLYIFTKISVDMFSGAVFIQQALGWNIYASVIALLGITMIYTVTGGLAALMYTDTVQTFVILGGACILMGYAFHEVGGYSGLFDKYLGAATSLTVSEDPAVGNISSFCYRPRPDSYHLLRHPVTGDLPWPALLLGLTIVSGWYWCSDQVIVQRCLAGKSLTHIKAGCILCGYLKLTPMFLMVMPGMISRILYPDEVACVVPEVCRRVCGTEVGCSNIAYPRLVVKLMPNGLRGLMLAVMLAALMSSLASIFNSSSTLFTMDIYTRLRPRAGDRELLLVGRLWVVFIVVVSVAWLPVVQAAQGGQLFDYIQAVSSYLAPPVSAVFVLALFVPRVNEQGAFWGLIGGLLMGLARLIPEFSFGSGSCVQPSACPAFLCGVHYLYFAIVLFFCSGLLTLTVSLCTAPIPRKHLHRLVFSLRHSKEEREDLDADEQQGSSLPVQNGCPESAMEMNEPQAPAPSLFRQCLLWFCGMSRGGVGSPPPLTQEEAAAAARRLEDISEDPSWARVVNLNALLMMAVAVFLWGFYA
Put plainly: SGLT2 assay: Na-dependent 14C-AMG uptake in CHO-K1 cells stably expressing human SGLT2. The assay is classed as cell-based. Conditions: for SGLT2 %-inhibition / inhibition at 0.3 µM: @ 0.3 μM; for IC50: average if tested more than once. On the procedure: as §1, §2, §3, §4, §5

With `Cc1cnc(N2CCc3sc(Cc4cc([C@@H]5O[C@H](CO)[C@@H](F)[C@H](O)[C@H]5O)ccc4C)cc3C2)s1` [Compound 113], the SGLT1 %-inhibition at human SGLT1 is given as 21.0% @ 0.3 μM. Besides, the SGLT2 %-inhibition on human SGLT2 is on record as 53.9% @ 0.3 μM.
For `CCOC(=O)N1CCc2sc(Cc3cc([C@@H]4O[C@H](CO)[C@@H](F)[C@H](O)[C@H]4O)c(O)cc3C)cc2C1` [Compound 64], the IC50 at human SGLT1 was 156 nM; at human SGLT2, 36 nM.
`[2H]C([2H])(c1ccc2c(c1)OCCO2)c1cc([C@@H]2O[C@H](CO)[C@@H](F)[C@H](O)[C@H]2O)ccc1C` [Compound 167] returned an SGLT1 %-inhibition at human SGLT1 of 37.9% @ 0.3 μM. Also, the SGLT2 %-inhibition at human SGLT2 was found to be 80.1% @ 0.3 μM.
In the case of `OC[C@H]1O[C@@H](c2cc(Cc3ccc4c(c3)OCCO4)c3c(c2O)CCO3)[C@H](O)[C@@H](O)[C@@H]1F` [Compound 61, (2S,3R,4R,5S,6R)-2-(7-((2,3-dihydrobenzo[b][1,4]dioxin-6-yl)methyl)-4-hydroxy-2,3-dihydrobenzofuran-5-yl)-5-fluoro-6-(hydroxymethyl)tetrahydro-2H-pyran-3,4-diol], the IC50 against human SGLT1 came to 14 nM; on human SGLT2, 3 nM.
`COc1cc(O)c([C@@H]2O[C@H](CF)[C@@H](F)[C@H](O)[C@H]2O)cc1Cc1cc2ccccc2s1` [Compound 11, (2S,3R,4R,5S,6R)-2-[5-(1-benzothiophen-2-ylmethyl)-2-hydroxy-4-methoxyphenyl]-5-fluoro-6-(fluoromethyl)oxane-3,4-diol]: the figures for the 50% inhibitory concentration (IC50) at human SGLT1 and at human SGLT2 were 91 nM and 59 nM, respectively.
In turn, `CCc1cc(OC)c([C@@H]2O[C@H](CO)[C@@H](F)[C@H](O)[C@H]2O)cc1Cc1cc2c(s1)CCN(C#N)C2` [Compound 115] came in with an SGLT1 %-inhibition on human SGLT1 of 35.6% @ 0.3 μM. This compound returned an SGLT2 %-inhibition on human SGLT2 of 79.3% @ 0.3 μM.
`CC1(CO)COc2c(Cc3ccc4c(c3)OCCO4)cc([C@@H]3O[C@H](CO)[C@@H](F)[C@H](O)[C@H]3O)cc21` (stereo partly shown) [Compound 88] registered an SGLT1 %-inhibition on human SGLT1 of 42.5% @ 0.3 μM. On human SGLT2, the SGLT2 %-inhibition was 44.8% @ 0.3 μM.
The corresponding values for `COc1cc(C)c(Cc2cc3c(s2)CCN(C(=O)N2CCOCC2)C3)cc1[C@@H]1O[C@H](CO)[C@@H](F)[C@H](O)[C@H]1O` [Compound 69] are 20.4% @ 0.3 μM and 60.3% @ 0.3 μM.
The like results for `N#CN1CCc2sc(Cc3cc([C@@H]4O[C@H](CO)[C@@H](F)[C@H](O)[C@H]4O)ccc3Cl)cc2C1` [Compound 121] were, in that order, 20.5% @ 0.3 μM and 79.8% @ 0.3 μM.
`COc1c(Cc2ccc3c(c2)OCCO3)cc([C@@H]2O[C@H](CO)[C@@H](F)[C@H](O)[C@H]2O)c2c1CCO2` [Compound 101, (2S,3R,4R,5S,6R)-2-[5-(2,3-dihydro-1,4-benzodioxin-6-ylmethyl)-4-methoxy-2,3-dihydrobenzofuran-7-yl]-5-fluoro-6-(hydroxymethyl)tetrahydropyran-3,4-diol]: the results for the IC50 on human SGLT1 and against human SGLT2 were 96 nM and 7 nM, respectively.
In turn, `COc1ccc([C@@H]2O[C@H](CO)[C@@H](F)[C@H](O)[C@H]2O)cc1Cc1cc2c(s1)CCN(C#N)C2` [Compound 120] displayed an SGLT1 %-inhibition at human SGLT1 of 6.6% @ 0.3 μM. The same compound gave an SGLT2 %-inhibition at human SGLT2 of 54.7% @ 0.3 μM.
Take `COc1cc(OC)c([C@@H]2O[C@H](CO)[C@@H](F)[C@H](O)[C@H]2O)cc1Cc1cc2c(s1)CCN(C#N)C2` [Compound 104]: the SGLT1 %-inhibition on human SGLT1 is listed as 32.5% @ 0.3 μM. Also, the SGLT2 %-inhibition at human SGLT2 stood at 81.2% @ 0.3 μM.
For the compound `COc1c(Cc2ccc3c(c2)CCCO3)cc([C@@H]2O[C@H](CO)[C@@H](F)[C@H](O)[C@H]2O)c2c1CCO2` [Compound 126, (2S,3R,4R,5S,6R)-2-(5-(chroman-6-ylmethyl)-4-methoxy-2,3-dihydrobenzofuran-7-yl)-5-fluoro-6-(hydroxymethyl)-tetrahydro-2H-pyran-3,4-diol], the values for the inhibition at 0.3 µM against human SGLT1 and against human SGLT2 were 21.7% and 16.8%, respectively.
The like results for `CCOc1c(Cc2ccc3c(c2)OCCO3)cc([C@@H]2O[C@H](CO)[C@@H](F)[C@H](O)[C@H]2O)c2c1CCO2` [Compound 102, (2S,3R,4R,5S,6R)-2-[5-(2,3-dihydro-1,4-benzodioxin-6-ylmethyl)-4-ethoxy-2,3-dihydrobenzofuran-7-yl]-5-fluoro-6-(hydroxymethyl)tetrahydropyran-3,4-diol] were, in that order, 27.6% and 40.7%.
In the case of `[2H]C([2H])(c1ccc2c(c1)OCCO2)c1cc([C@@H]2O[C@H](CO)[C@@H](F)[C@H](O)[C@H]2O)ccc1CC` [Compound 156], the values for the IC50 on human SGLT1 and at human SGLT2 were 86 nM and 10 nM, respectively.
Take `O=C(N1CCCC1)N1CCc2sc(Cc3cc([C@@H]4O[C@H](CO)[C@@H](F)[C@H](O)[C@H]4O)cc4c3OCC4)cc2C1` [Compound 70]: the values for the IC50 at human SGLT1 and at human SGLT2 were 100 nM and 162 nM, respectively.
On human SGLT1, `COC(=O)N1CCc2sc(Cc3cc([C@@H]4O[C@H](CO)[C@@H](F)[C@H](O)[C@H]4O)c(OC)cc3OC)cc2C1` [Compound 83] gave an SGLT1 %-inhibition of 17.4% @ 0.3 μM. The same compound displayed an SGLT2 %-inhibition at human SGLT2 of 72.3% @ 0.3 μM.
As for `COc1cc(O)c([C@@H]2O[C@H](CO)[C@@H](F)[C@H](O)[C@H]2O)cc1Cc1cc2ccccc2s1` [Compound 2, (2S,3R,4R,5S,6R)-2-(5-(benzo[b]thiophen-2-ylmethyl)-2-hydroxy-4-methoxyphenyl)-5-fluoro-6-(hydroxymethyl)tetrahydro-2H-pyran-3,4-diol], the results for the IC50 at human SGLT1 and against human SGLT2 were 9 nM and 8 nM, respectively.
For the compound `CCc1c(Cc2ccc3c(c2)OCCO3)cc([C@@H]2O[C@H](CO)[C@@H](F)[C@H](O)[C@H]2O)c2c1CCO2` [Compound 180], the IC50 against human SGLT1 turned out to be 61 nM; on human SGLT2, 25 nM.
The corresponding values for `Cc1cc(O)c([C@@H]2O[C@H](CO)[C@@H](F)[C@H](O)[C@H]2O)cc1Cc1cc2c(s1)CCN(C(=O)N1CCCC1)C2` [Compound 66, (2-(5-((2S,3R,4R,5S,6R)-5-fluoro-3,4-dihydroxy-6-(hydroxymethyl)tetrahydro-2H-pyran-2-yl)-4-hydroxy-2-methylbenzyl)-6,7-dihydrothieno[3,2-c]pyridin-5(4H)-yl)(pyrrolidin-1-yl)methanone] are 40 nM and 14 nM.

In general, IC50 refers to the concentration at which inhibition is half-maximal. Broadly, the inhibition is the drop in the measured response relative to a control, in per cent. A higher inhibition goes with a response far below the control.
